Where two headings read alike, the source gives them in different places.
Columns and labels:
[1] = system: adult subjects with TRD; assay type: in vivo, human; details: for Non-responders % / Non-responders N / Responders % (MADRS total score reduction >50% TRD2001, ≥50% TRD2002) / Responders N (MADRS total score reduction >50% TRD2001, ≥50% TRD2002): after first infusion (Day 2 TRD2001, Day 3 or 4 TRD2002)
Experimental: (§1) Association between changes in MADRS total score from baseline and the SNP rs6265 after a single dose was evaluated in placebo subjects and active subjects using an ANCOVA model under a dominant model with baseline MADRS total score, and grouped genotype (Val/Val or Met carrier). A statistically significant result was found in active subjects (p=0.02).
as §1, with “the % responders” for “changes in MADRS total score from baseline”, “a logistic regression” for “an ANCOVA”, “score” for “score,”, “(p=0.03).” for “(p=0.02).”
Association between the % remitters and the SNP rs6265 after a single dose was evaluated in placebo subjects and as well as in active subjects using a logistic regression model under a dominant model with baseline MADRS total score and grouped genotype (Val/Val or Met carrier).

[2] = system: patients with major depressive disorders; details: cited from earlier work
[3] = system: adult subjects with TRD; details: for Day 17 responders who maintained response status up to Day 35, % / Day 17 responders who maintained response status up to Day 35, number: all subjects

## CNC1(c2ccccc2Cl)CCCCC1=O (racemic) [Ketamine, ketamine]
[1]; Met carriers
  Non-responders %: 92.3%
  Non-responders N: 12
  Responders % (MADRS total score reduction >50% TRD2001, ≥50% TRD2002): 7.7%
  Responders N (MADRS total score reduction >50% TRD2001, ≥50% TRD2002): 1
[1]; Val/Val
  Non-responders %: 71.4%
  Non-responders N: 15
  Responders % (MADRS total score reduction >50% TRD2001, ≥50% TRD2002): 28.6%
  Responders N (MADRS total score reduction >50% TRD2001, ≥50% TRD2002): 6
[1]; acute, single dose administration
  Clinical response associated with Met allele of Val66Met rs6265: smaller clinical response
[2]; MDD patients, LAJE, Biol. Psychiatry 2012
  Likelihood of antidepressant response, Val/Val BDNF allele at rs6265 vs Met carriers: more likely to exhibit antidepressant response to ketamine than Met carriers
[2]; patients with major depressive disorders
  Onset of rapid antidepressant effect: within two hours
[3]; Met carriers (of 7)
  Day 17 responders who maintained response status up to Day 35, %: 42.9%
  Day 17 responders who maintained response status up to Day 35, number: 3
[3]; Val/Val (of 12)
  Day 17 responders who maintained response status up to Day 35, %: 91.7%
  Day 17 responders who maintained response status up to Day 35, number: 11
[3]; among all subjects (Val/Val and Met carriers)
  Responders on Day 17, number: 19
[3]; among all subjects, Met carriers
  Responders on Day 17, number: 7
[3]; among all subjects, Val/Val
  Responders on Day 17, number: 12

— patent publication US10869844B2, “Methods for the treatment of depression” (Janssen Pharmaceutica NV, priority 2014, dated 2020)
